From ChEMBL document CHEMBL5727558, “Organic compounds” (2020)

Tests used:
[1] = target: Dual specificity calcium/calmodulin-dependent 3',5'-cyclic nucleotide phosphodiesterase 1B (Homo sapiens, UniProt Q01064); assay: (§1) Enzyme Assay: Assay: The following phosphodiesterase enzymes may be used: 3′,5′-cyclic-nucleotide-specific bovine brain phosphodiesterase (Sigma, St. Louis, Mo.) (predominantly PDE1B) and recombinant full length human PDE1A and PDE1B (r-hPDE1A and r-hPDE1B respectively) which may be produced e.g., in HEK or SF9 cells by one skilled in the art. The PDE1 enzyme is reconstituted with 50% glycerol to 2.5 U/ml. One unit of enzyme will hydrolyze 1.0 μmole of 3′,5′-cAMP to 5′-AMP per min at pH 7.5 at 30° C. One part enzyme is added to 1999 parts reaction buffer (30 μM CaCl2, 10 U/ml of calmodulin (Sigma P2277), 10 mM Tris-HCl pH 7.2, 10 mM MgCl2, 0.1% BSA, 0.05% NaN3) to yield a final concentration of 1.25 mU/ml. 99 μl of diluted enzyme solution is added into each well in a flat bottom 96-well polystyrene plate to which 1 μl of test compound dissolved in 100% DMSO is added. The compounds are mixed and pre-incubated with the enzyme for 10 min at room temperature.
Chain of Dual specificity calcium/calmodulin-dependent 3',5'-cyclic nucleotide phosphodiesterase 1B (Q01064 whole entry): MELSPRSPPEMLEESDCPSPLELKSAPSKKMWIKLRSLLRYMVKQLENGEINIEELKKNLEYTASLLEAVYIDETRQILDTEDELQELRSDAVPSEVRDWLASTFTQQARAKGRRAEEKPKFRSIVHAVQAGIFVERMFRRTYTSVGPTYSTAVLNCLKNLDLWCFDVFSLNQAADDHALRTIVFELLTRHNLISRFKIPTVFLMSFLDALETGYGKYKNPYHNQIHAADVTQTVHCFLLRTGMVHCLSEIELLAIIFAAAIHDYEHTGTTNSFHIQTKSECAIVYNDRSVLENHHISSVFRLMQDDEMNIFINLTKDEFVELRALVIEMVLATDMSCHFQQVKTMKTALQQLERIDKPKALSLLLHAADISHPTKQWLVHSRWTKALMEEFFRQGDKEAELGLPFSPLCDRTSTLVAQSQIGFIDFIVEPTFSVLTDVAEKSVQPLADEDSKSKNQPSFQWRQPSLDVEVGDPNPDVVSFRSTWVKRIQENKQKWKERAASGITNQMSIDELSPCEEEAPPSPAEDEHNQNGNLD

[2] = target: Dual specificity calcium/calmodulin-dependent 3',5'-cyclic nucleotide phosphodiesterase 1A (Homo sapiens, UniProt P54750); assay: as §1
Chain of Dual specificity calcium/calmodulin-dependent 3',5'-cyclic nucleotide phosphodiesterase 1A (P54750 whole entry): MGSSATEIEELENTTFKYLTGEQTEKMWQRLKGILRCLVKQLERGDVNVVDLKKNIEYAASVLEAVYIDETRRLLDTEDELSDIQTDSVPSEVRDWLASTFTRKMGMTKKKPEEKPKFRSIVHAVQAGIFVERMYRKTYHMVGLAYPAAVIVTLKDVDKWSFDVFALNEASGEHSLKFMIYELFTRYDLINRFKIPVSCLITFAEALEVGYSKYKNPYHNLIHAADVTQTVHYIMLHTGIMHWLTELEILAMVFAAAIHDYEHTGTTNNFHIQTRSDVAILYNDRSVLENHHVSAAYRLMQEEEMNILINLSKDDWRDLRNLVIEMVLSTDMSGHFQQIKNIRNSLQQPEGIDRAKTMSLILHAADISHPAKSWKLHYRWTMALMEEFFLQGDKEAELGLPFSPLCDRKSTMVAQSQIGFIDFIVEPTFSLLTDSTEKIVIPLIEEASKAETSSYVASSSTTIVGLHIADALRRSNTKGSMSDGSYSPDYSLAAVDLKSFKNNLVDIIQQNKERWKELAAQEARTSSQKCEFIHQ

CC(C)Sc1c2c(nn1Cc1ccc(-c3cccc(F)n3)cc1)N1CC(C)(C)N=C1N(C)C2=O
IC50 [1]: 3000 nM
IC50 [2]: 5 nM
